Converted amounts (≈) assume the structure as drawn. “Also recorded” adds a separate entry of the source. Like-named read-outs stand apart in the source and are kept apart here.
Assays:
[1] = target: T1, chimeric RXRα receptor (Homo sapiens, UniProt P19793); experiment: Cationic Liposome Mediated Transfection Assay (ERE-CAT reporter in HeLa cells), RXRα; type: cell-based; conditions: concentration giving 50% of maximum CAT activity of reference AGN 191440
T1 construct: expressed in transfected cells; host or cells: HeLa cells
T1 sequence (P19793 227-458 limits assumed): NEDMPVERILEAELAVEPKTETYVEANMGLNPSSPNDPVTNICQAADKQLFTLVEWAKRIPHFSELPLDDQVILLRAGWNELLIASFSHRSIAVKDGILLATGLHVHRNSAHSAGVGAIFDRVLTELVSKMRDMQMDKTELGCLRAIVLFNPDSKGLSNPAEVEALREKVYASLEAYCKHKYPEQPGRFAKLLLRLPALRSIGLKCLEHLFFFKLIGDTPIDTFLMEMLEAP

[2] = test system: gestating ICR mice; experiment: in vivo teratology study in gestating ICR mice; design: species or system mouse; conditions: for teratogenicity (in words): conclusion from Table 2
Description: The methodology of the study is described as follows: ICR mice (Ace Animals, Boyertown, Pa.) were used. Mature male and virgin female ICR mice were housed in environmentally controlled rooms and acclimatized to a 12 hour light/dark cycle (light cycle 6 A.M. to 6 P.M.) for 2 weeks prior to use. All animals were maintained on Purina Lab Chow and tap water ad libitum. A group of 3-4 females was caged with a single male of proven fertility for 4 hours. Presence of a vaginal plug immediately afterward was regarded as evidence of successful mating, and this day was designated as day 0 of gestation. […] All animals were killed by cervical dislocation under mild ether anesthesia on day 17 of gestation. Upon laparotomy, the fetuses were examined for external malformations and weighed; one-half of each litter was then fixed in 95% ethanol and processed for staining of the skeleton by the rapid, alizarin red-S dye method. These preparations were examined under a dissection microscope to screen for abnormalities in the axial and the appendicular skeleton. The other half of each litter was fixed in Bouin's solution and examined by freehand razor serial sectioning to screen for anomalies of the brain, face, and palate. Differences in dose-related incidence of malformations and resorptions were assessed by computing percentages of affected conceptuses among total implantation sites. The groups were compared statistically by a method based on Student's t-tests of arcs in square root transformed percentages. Values at 0.05 probability level were considered significant. The median effective dose was calculated by logarithmic curve fitting of the dose-response data.

[3] = pharmacokinetic study, concentration in maternal plasma and embryo of mice; type: in vivo; conditions: oral intubation, single dose of 10 mg/kg, FIG. 8
Description: FIG. 8 is a graph showing the concentration of compound AGN 191701 (Compound 1) in nanograms per ml, or nanograms per gram as indicated on the chart, in the plasma and embryo of mice at various times after oral intubation of a single dose of 10 mg/kg of the compound.

[4] = target: T2, chimeric RARβ receptor (Homo sapiens, UniProt P10826); experiment: Cationic Liposome Mediated Transfection Assay (ERE-CAT reporter in HeLa cells), RARβ
T2 sequence (P10826 183-417 limits assumed): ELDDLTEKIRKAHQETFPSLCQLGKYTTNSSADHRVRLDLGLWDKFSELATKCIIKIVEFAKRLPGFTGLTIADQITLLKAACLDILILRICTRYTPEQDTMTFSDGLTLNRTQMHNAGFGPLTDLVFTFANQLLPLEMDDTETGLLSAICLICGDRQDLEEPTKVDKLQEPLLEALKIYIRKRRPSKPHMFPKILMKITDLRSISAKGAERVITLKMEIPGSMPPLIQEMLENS

[5] = test system: limb bud mesenchymal cells; experiment: inhibition of chondrogenesis in high-density spot cultures of limb bud mesenchymal cells; type: cell-based, mouse; conditions: for IC50: Mus musculus
Description: An in vitro bioassay which measures inhibition of chondrogenesis (bone formation) in chick embryo cells is considered a classic measure of teratogenecity. The assay is conducted as follows: High-density “spot” cultures of limb bud mesenchymal cells were used to compare the ability of various concentrations of test drugs to suppress chondrogenic differentiation as a bioassay. Forelimb buds of mouse embryos on day 12 of gestation (54±2 somites) were dissociated in a trypsin-EDTA solution, and the resultant single-cell suspension was plated as 20-μl spots (200,000 cells/spot) on plastic culture dishes. Retinoid concentrations ranging from 0.3 ng/ml to 3 μg/ml (1 nM-10 μM) were added to the culture medium (Eagle's MEM+10% fetal bovine serum, GIBCO) 24 hours after initial plating. Control cultures received only the vehicle (ethanol, concentration≦1% by vol); Retinoic acid was used as a positive control in another set of cultures. The cultures were terminated 96 hours after plating, at which time the medium was removed and the cells were fixed for 1 hour in 10% formalin containing 0.5% cetylpyridinium chloride. The cultures were rinsed in acetic acid and stained for 1 hour in 0.5% Alcian blue solution at pH 1.0, differentiated in 3% acetic acid, and then dehydrated in ethanol and scored for chondrogenesis under the microscope. An absence or reduction in the number of cartilage nodules in stained cultures as compared with control cultures was taken as a measure of suppression of chondrogenesis. The number of cartilage nodules stained in the whole spot, mean number of nodules, and standard deviations were calculated for four replicate cultures per treatment. The median concentration causing a 50% inhibition of chondrogenesis compared with controls (IC50) was calculated by logarithmic curve fitting of the dose-response data.

[6] = test system: human sebocyte cultures; experiment: 3H-thymidine incorporation assay in human sebocyte cultures; type: cell-based; conditions: FIG. 3, 8 days of treatment
Description: An assay involving human sebocyte cultures measures the inhibition of ^3H-thymidine into cells, and thus measures inhibition of DNA synthesis and thus an anti-proliferative effect on sebocyte (i.e. a sebostatic effect). This assay is also considered a specific assay for effectiveness of a compound as a potential anti-acne drug. The test is conducted as follows. Face-lift or forehead reduction skins from cosmetic surgeries were used as sources of human sebaceous gland cells (sebocytes). Isolated sebocytes were plated in type 1 collagen coated-dishes in DMEM/F12 (1:1) medium supplemented with 8% fetal bovine serum, 2% human serum, 10 ng/ml epidermal growth factor, 1 nM cholera toxin, 1 μM hydrocortisone, and penicillin/streptomycin/amphotericin B. Secondary cultures were prepared by plating Dispase dissociated cells in collagen coated 24-well plates. […] DNA from the cells were extracted by thichoroacetic acid and perchloric acid, and assayed for radioactivity by scintillation counting and for content of DNA by the diphenylamine colorimetric method. The results were expressed as CPM/μg DNA, or as per cent of vehicle control which incorporated about 1,000-1,500 cpm/μg DNA.

[7] = target: T3, chimeric RARγ receptor (Homo sapiens, UniProt P13631); experiment: Cationic Liposome Mediated Transfection Assay (ERE-CAT reporter in HeLa cells), RARγ
T3 sequence (P13631 185-419 limits assumed): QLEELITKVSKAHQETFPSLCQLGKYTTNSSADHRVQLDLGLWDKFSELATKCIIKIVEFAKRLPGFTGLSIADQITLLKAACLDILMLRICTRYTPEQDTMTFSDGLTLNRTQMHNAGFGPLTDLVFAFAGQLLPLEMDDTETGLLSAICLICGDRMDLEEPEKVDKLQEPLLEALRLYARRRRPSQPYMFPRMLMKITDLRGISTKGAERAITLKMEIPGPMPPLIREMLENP

[8] = target: T4, chimeric RARα receptor (Homo sapiens, UniProt P10276); experiment: Cationic Liposome Mediated Transfection Assay (ERE-CAT reporter in HeLa cells), RARα
T4 sequence (P10276 183-417 limits assumed): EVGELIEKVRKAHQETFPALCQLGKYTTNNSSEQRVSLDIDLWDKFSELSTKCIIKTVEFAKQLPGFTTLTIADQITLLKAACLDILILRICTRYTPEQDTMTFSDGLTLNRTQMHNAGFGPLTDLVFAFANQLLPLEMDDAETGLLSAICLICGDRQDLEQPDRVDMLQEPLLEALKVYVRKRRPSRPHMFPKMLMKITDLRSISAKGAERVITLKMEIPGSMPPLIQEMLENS

[9] = single oral dose 1 mg/kg on day 11 of gestation
[10] = single oral dose 10 mg/kg on day 11 of gestation
[11] = single oral dose 100 mg/kg on day 11 of gestation
[12] = Table 3, cultures terminated 96 hours after plating, read-out: IC50, 50% inhibition of chondrogenesis
[13] = single oral dose 0.01 mg/kg on day 11 of gestation
[14] = single oral dose 0.1 mg/kg on day 11 of gestation

## C/C(=C\c1cc(C(=O)O)cs1)c1cc2c(cc1C)C(C)(C)CCC2(C)C [Compound 1, 2-[(E)-2-(5,6,7,8-Tetrahydro-3,5,5,8,8-pentamethylnaphthalen-2-yl)propen-1-yl]thiophene-4-carboxylic Acid]
[1]
  EC50: 67 nM
[2]; listed as AGN 191701
  teratogenicity (in words): practically not teratogenic; also recorded: very little teratogenic effect
[2]; [9]
  # Litters Normal: 1
  % Cleft Palate: 0%
  % Limb Defects: 0%
  % Resorbed: 18%
[2]; [10]
  # Litters Normal: 3
  % Cleft Palate: 0%
  % Limb Defects: 0%
  % Resorbed: 14%
[2]; [11]
  # Litters Normal: 2
  % Cleft Palate: 19%
  % Limb Defects: 22%
  % Resorbed: 2%
[3]
  presence in maternal plasma and embryo (in words): present in substantial concentration in the maternal plasma and in the embryo
[4]
  EC50: 3350 nM
[5]; [12]
  IC50: 19 µg/mL (≈ 51.6 µM)
[5]; text b179, read-out: IC50, inhibition of chondrogenesis
  IC50: 19 µg/mL (≈ 51.6 µM)
[5]; ratio of IC50 values, versus Compound 7
  times less teratogenic than Compound 7 in the chondrogenesis assay: approximately 6.3×10^4 times
[6]
  inhibition of 3H-thymidine incorporation in sebocytes (in words): effective retinoid
[7]
  EC50: 1070 nM

## C/C(=C\C=C\c1occc1C(=O)O)c1cc2c(cc1C)C(C)(C)CCC2(C)C [Compound 2]
[1]
  EC50: 1060 nM

## C/C(=C/C=C/c1occc1C(=O)O)c1cc2c(cc1C)C(C)(C)CCC2(C)C [Compound 3]
[1]
  EC50: 1310 nM

## C/C(=C\c1ccc(C(=O)O)o1)c1cc2c(cc1C)C(C)(C)CCC2(C)C [Compound 4]
[8]
  EC50: > 10000 nM
[1]
  EC50: 516 nM
[4]
  EC50: > 10000 nM
[7]
  EC50: > 10000 nM

## C/C(=C\C=C\C1C[C@H]1C(=O)O)c1cc2c(cc1C)C(C)(C)CCC2(C)C (stereo partly drawn) [Compound 5, Cis-[2-[4-Methyl-4-(3,5,5,8,8,-pentamethyl-5,6,7,8-tetrahydronapthalen)-2-yl]-1E,3E-butadien-1-yl] 1-Cyclopropane Carboxylic Acid]
[1]
  EC50: 139 nM

## C/C(=C\c1ccc(C(=O)O)cc1)c1ccc2c(c1)C(C)(C)CCC2(C)C [Compound 7, reference compound]
[1]
  EC50: > 10000 nM
[2]
  teratogenicity (in words): much more teratogenic than Compound 1
[2]; [13]
  # Litters Normal: 2
  % Cleft Palate: 29%
  % Limb Defects: 20%
  % Resorbed: 3%
[2]; [14]
  # Litters Normal: 0
  % Cleft Palate: 100%
  % Limb Defects: 100%
  % Resorbed: 30%
[2]; [9]
  # Litters Normal: 0
  % Resorbed: 100%
[2]; [10]
  # Litters Normal: 0
  % Resorbed: 100%
[5]; [12]
  IC50: 0.003 µg/mL (≈ 0.00861 µM)
[5]; text b179, read-out: IC50, inhibition of chondrogenesis (unit inferred)
  IC50: 0.003 µg/mL (≈ 0.00861 µM)
